Results: BigSolDB 2.1

COC(=O)C(C)(C)N=NC(C)(C)C(=O)OC
Details | solubility (mole fraction)
in THF, 253.85 K | 0.13
in THF, 258.55 K | 0.156
in THF, 260.95 K | 0.175
in THF, 262.85 K | 0.194
in THF, 265.15 K | 0.224
in THF, 268.85 K | 0.263
in THF, 273.65 K | 0.326
in THF, 275.95 K | 0.364
in THF, 278.45 K | 0.404
in THF, 280.65 K | 0.443
in THF, 283.15 K | 0.497
in THF, 285.65 K | 0.561
in THF, 288.05 K | 0.614
in THF, 290.55 K | 0.674
in THF, 293.15 K | 0.75
in acetone, 252.75 K | 0.0841
in acetone, 254.45 K | 0.0922
in acetone, 257.95 K | 0.112
in acetone, 261.25 K | 0.136
in acetone, 264.95 K | 0.171
in acetone, 267.65 K | 0.201
in acetone, 273.55 K | 0.276
in acetone, 275.85 K | 0.308
in acetone, 278.25 K | 0.352
in acetone, 280.55 K | 0.395
in acetone, 283.05 K | 0.454
in acetone, 285.65 K | 0.524
in acetone, 287.95 K | 0.591
in acetone, 290.45 K | 0.657
in acetone, 293.15 K | 0.734
in acetonitrile, 251.75 K | 0.0545
in acetonitrile, 255.15 K | 0.0705
in acetonitrile, 258.65 K | 0.091
in acetonitrile, 262.45 K | 0.113
in acetonitrile, 265.15 K | 0.137
in acetonitrile, 269.15 K | 0.18
in acetonitrile, 273.55 K | 0.238
in acetonitrile, 275.75 K | 0.278
in acetonitrile, 278.15 K | 0.323
in acetonitrile, 280.65 K | 0.369
in acetonitrile, 283.25 K | 0.432
in acetonitrile, 285.55 K | 0.494
in acetonitrile, 287.95 K | 0.557
in acetonitrile, 290.85 K | 0.638
in acetonitrile, 293.15 K | 0.702
in cyclohexane, 281.15 K | 0.147
in cyclohexane, 283.55 K | 0.233
in cyclohexane, 286.05 K | 0.362
in cyclohexane, 288.45 K | 0.471
in cyclohexane, 291.05 K | 0.601
in cyclohexane, 293.15 K | 0.677
in dichloromethane, 252.95 K | 0.268
in dichloromethane, 257.05 K | 0.281
in dichloromethane, 260.55 K | 0.296
in dichloromethane, 264.45 K | 0.321
in dichloromethane, 268.05 K | 0.352
in dichloromethane, 271.05 K | 0.385
in dichloromethane, 274.95 K | 0.413
in dichloromethane, 276.65 K | 0.451
in dichloromethane, 278.85 K | 0.493
in dichloromethane, 281.15 K | 0.513
in dichloromethane, 283.55 K | 0.552
in dichloromethane, 286.15 K | 0.592
in dichloromethane, 288.45 K | 0.627
in dichloromethane, 291.05 K | 0.67
in dichloromethane, 293.15 K | 0.73
in diethyl ether, 254.25 K | 0.0921
in diethyl ether, 257.95 K | 0.104
in diethyl ether, 260.55 K | 0.119
in diethyl ether, 262.45 K | 0.136
in diethyl ether, 266.75 K | 0.177
in diethyl ether, 268.15 K | 0.19
in diethyl ether, 273.55 K | 0.268
in diethyl ether, 275.65 K | 0.298
in diethyl ether, 278.05 K | 0.361
in diethyl ether, 280.55 K | 0.4
in diethyl ether, 282.85 K | 0.46
in diethyl ether, 285.55 K | 0.543
in diethyl ether, 287.95 K | 0.599
in diethyl ether, 290.45 K | 0.667
in diethyl ether, 293.15 K | 0.743
in ethanol, 252.85 K | 0.0094
in ethanol, 256.15 K | 0.011
in ethanol, 258.65 K | 0.0133
in ethanol, 261.85 K | 0.0165
in ethanol, 265.85 K | 0.0255
in ethanol, 268.55 K | 0.0344
in ethanol, 273.25 K | 0.0568
in ethanol, 275.85 K | 0.0726
in ethanol, 278.15 K | 0.094
in ethanol, 280.65 K | 0.123
in ethanol, 283.15 K | 0.17
in ethanol, 285.65 K | 0.238
in ethanol, 288.05 K | 0.329
in ethanol, 291.05 K | 0.481
in ethanol, 293.25 K | 0.625
in ethyl acetate, 252.15 K | 0.107
in ethyl acetate, 255.15 K | 0.114
in ethyl acetate, 257.85 K | 0.134
in ethyl acetate, 260.15 K | 0.146
in ethyl acetate, 263.65 K | 0.185
in ethyl acetate, 269.25 K | 0.246
in ethyl acetate, 273.65 K | 0.308
in ethyl acetate, 276.15 K | 0.342
in ethyl acetate, 278.45 K | 0.389
in ethyl acetate, 280.85 K | 0.433
in ethyl acetate, 283.25 K | 0.492
in ethyl acetate, 285.65 K | 0.558
in ethyl acetate, 288.05 K | 0.611
in ethyl acetate, 290.55 K | 0.668
in ethyl acetate, 293.25 K | 0.744
in isobutanol, 252.65 K | 0.0055
in isobutanol, 256.55 K | 0.0084
in isobutanol, 259.45 K | 0.0111
in isobutanol, 262.95 K | 0.013
in isobutanol, 265.65 K | 0.0155
in isobutanol, 269.35 K | 0.0205
in isobutanol, 273.55 K | 0.0388
in isobutanol, 275.95 K | 0.0587
in isobutanol, 278.15 K | 0.0813
in isobutanol, 280.65 K | 0.122
in isobutanol, 283.45 K | 0.194
in isobutanol, 285.75 K | 0.279
in isobutanol, 288.05 K | 0.355
in isobutanol, 290.95 K | 0.521
in isobutanol, 293.15 K | 0.643
in isopropanol, 252.05 K | 0.0065
in isopropanol, 256.25 K | 0.0081
in isopropanol, 258.95 K | 0.01
in isopropanol, 262.45 K | 0.0141
in isopropanol, 265.75 K | 0.0199
in isopropanol, 268.75 K | 0.0272
in isopropanol, 273.35 K | 0.0484
in isopropanol, 275.45 K | 0.0653
in isopropanol, 278.05 K | 0.0853
in isopropanol, 280.75 K | 0.137
in isopropanol, 283.15 K | 0.189
in isopropanol, 285.45 K | 0.26
in isopropanol, 287.95 K | 0.345
in isopropanol, 290.85 K | 0.5
in isopropanol, 293.15 K | 0.627
in methanol, 252.95 K | 0.0142
in methanol, 255.35 K | 0.0156
in methanol, 257.65 K | 0.0169
in methanol, 261.55 K | 0.0203
in methanol, 265.35 K | 0.0253
in methanol, 267.15 K | 0.0308
in methanol, 273.55 K | 0.0633
in methanol, 275.85 K | 0.0722
in methanol, 278.65 K | 0.0863
in methanol, 280.65 K | 0.122
in methanol, 283.05 K | 0.182
in methanol, 285.55 K | 0.248
in methanol, 288.15 K | 0.364
in methanol, 290.65 K | 0.482
in methanol, 293.15 K | 0.626
in n-butanol, 252.35 K | 0.0064
in n-butanol, 256.35 K | 0.0076
in n-butanol, 259.15 K | 0.0091
in n-butanol, 262.55 K | 0.0111
in n-butanol, 265.55 K | 0.0145
in n-butanol, 269.75 K | 0.0232
in n-butanol, 273.65 K | 0.0385
in n-butanol, 276.15 K | 0.0541
in n-butanol, 278.35 K | 0.0801
in n-butanol, 281.15 K | 0.123
in n-butanol, 283.55 K | 0.18
in n-butanol, 285.65 K | 0.251
in n-butanol, 288.15 K | 0.33
in n-butanol, 291.05 K | 0.486
in n-butanol, 293.15 K | 0.63
in n-propanol, 253.35 K | 0.0088
in n-propanol, 257.05 K | 0.0107
in n-propanol, 259.65 K | 0.0133
in n-propanol, 262.15 K | 0.0162
in n-propanol, 266.25 K | 0.0234
in n-propanol, 271.05 K | 0.0385
in n-propanol, 274.95 K | 0.0613
in n-propanol, 276.65 K | 0.0783
in n-propanol, 278.85 K | 0.098
in n-propanol, 281.15 K | 0.125
in n-propanol, 283.55 K | 0.173
in n-propanol, 286.15 K | 0.25
in n-propanol, 288.45 K | 0.352
in n-propanol, 291.05 K | 0.47
in n-propanol, 293.15 K | 0.611
in tetrachloromethane, 252.55 K | 0.109
in tetrachloromethane, 256.95 K | 0.125
in tetrachloromethane, 260.35 K | 0.144
in tetrachloromethane, 264.05 K | 0.182
in tetrachloromethane, 266.85 K | 0.214
in tetrachloromethane, 269.55 K | 0.242
in tetrachloromethane, 273.65 K | 0.314
in tetrachloromethane, 276.15 K | 0.349
in tetrachloromethane, 278.45 K | 0.393
in tetrachloromethane, 280.75 K | 0.445
in tetrachloromethane, 283.35 K | 0.506
in tetrachloromethane, 285.75 K | 0.564
in tetrachloromethane, 288.15 K | 0.632
in tetrachloromethane, 290.55 K | 0.696
in toluene, 253.45 K | 0.104
in toluene, 256.35 K | 0.119
in toluene, 259.55 K | 0.141
in toluene, 262.55 K | 0.161
in toluene, 264.85 K | 0.184
in toluene, 269.55 K | 0.237
in toluene, 273.65 K | 0.286
in toluene, 276.05 K | 0.326
in toluene, 278.25 K | 0.367
in toluene, 280.65 K | 0.41
in toluene, 283.15 K | 0.47
in toluene, 285.55 K | 0.545
in toluene, 288.05 K | 0.597
in toluene, 290.95 K | 0.67
in toluene, 293.15 K | 0.731
